Data: patent US7786142B2, “Heterocyclic compounds as pSTAT3/IL-6 inhibitors” (Orchid Research Laboratories, Ltd., priority 2005, dated 2010)

Columns and labels:
HCT116 cells = assay: Anti-cancer screen (MTT), HCT116 cells; type: cell-based; conditions: Homo sapiens, HCT-116, HCT116, 48 hours, concentrations tested 0.01-100 μM
Method: (§1) Experimental drugs are screened for anti-cancer activity in three cell lines for their GI50, TGI and LC50 values (using five concentrations for each compound). The cell lines are maintained in DMEM containing 10% fetal bovine serum. 96 well micro titer plates are inoculated with cells in 100 μL for 24 hours at 37° C., 5% CO2, 95% air and 100% relative humidity. 5000 HCT116 cells/well, 5000 NCIH460 cells/well and 5000 U251 cells/well are plated. A separate plate with these cell lines is also inoculated to determine cell viability before the addition of the compounds (T0), (See Table I).
(§2) Following 24-hours incubation, experimental drugs are added to the 96 well plates. Each plate contains one of the above cell lines and the following in triplicate: five different concentrations (0.01, 0.1, 1, 10 and 100 μM) of four different compounds, appropriate dilutions of a cytotoxic standard and control (untreated) wells. Compounds are dissolved in DMSO to make 20 mM stock solutions on the day of drug addition and frozen at −20° C. Serial dilutions of these 20 mM stock solutions are made in complete growth medium such that 100 μL of these drug solutions in medium, of final concentrations equaling 0.01, 0.1, 1, 10 and 100 μM can be added to the cells in triplicate. Standard drugs whose anti-cancer activity has been well documented and which are regularly used are Doxorubicin and SAHA, (See Table I).
(§3) For T0 measurement, 24 hours after seeding the cells, 10 μL of 3-(4,5-Dimethyl-2-thiazolyl)-2,5-diphenyl-2H-tetrazolium (MTT) solution per well is added and incubation carried out for 3 hours at 37° C., 5% CO2, 95% air and 100% relative humidity, protected from light. Cells incubated with compounds for 48 hours are treated similarly except with the addition of 20 μL MTT solution per well and a subsequent incubation under the same conditions. After 3 hours of MTT incubation, well contents are aspirated carefully followed by addition of 150 μL DMSO per well. Plates are agitated to ensure solution of the formazan crystals in DMSO and absorbance read at 570 nm, (See Table I).
(§4) Percent growth is calculated for each compound's concentration relative to the control and zero measurement wells (T0; viability right before compound addition). If a test well's O.D. value is greater than the T0 measurement for that cell line % Growth=(test−zero)/(control−zero)×100

[1] = test system: NCIH460, HCT116, MDAMB-231/U 251; assay: Anti-cancer screen, mean GI50 over the cell lines; type: cell-based
Method: as §1, §2, §3, §4

NCIH460 cells = assay: Anti-cancer screen (MTT), NCIH460 cells; type: cell-based; conditions: Homo sapiens, NCI-H460, NCIH460, 48 hours, concentrations tested 0.01-100 μM; for CC50: read-out: LC50 (the source's name)
Method: as §1, §2, §3, §4

MDAMB-231/U 251 = assay: Anti-cancer screen (MTT), MDAMB-231/U 251 cells; type: cell-based; conditions: MDAMB-231/U 251, 48 hours, concentrations tested 0.01-100 μM; for CC50: read-out: LC50 (the source's name)
Method: as §1, §2, §3, §4

Row | SMILES | melting point [°C] | also measured
1 | COc1ccc(CC(=O)N2CCN(CC(O)COc3cccc4[nH]c5ccccc5c34)CC2)cc1 (stereo not drawn) | 166 to 169 | –
2 | O=C(Cc1c(F)c(F)c(F)c(F)c1F)N1CCN(CC(O)COc2cccc3[nH]c4ccccc4c23)CC1 (stereo not drawn) | 93 to 96 | –
3 | O=C(Cc1ccc(O)c(F)c1)N1CCN(CC(O)COc2cccc3[nH]c4ccccc4c23)CC1 (stereo not drawn) | 111 to 113 | –
4 | O=C(Cc1ccc(F)cc1)N1CCN(CC(O)COc2cccc3[nH]c4ccccc4c23)CC1 (stereo not drawn) | 79 to 81 | –
5 | OC(COc1cccc2[nH]c3ccccc3c12)CN1CCNCC1 (stereo not drawn) [Example 3, 1-(9H-carbazol-4-yloxy)-3-piperazin-1-ylpropan-2-ol] | – | GI50 (HCT116 cells): 7 µM; IC (TGI) (HCT116 cells): 36 µM; LC50 (concentration for 50% net cell kill relative to T0) (HCT116 cells): 72 µM; GI50 [1]: 29.7 µM; GI50 (NCIH460 cells): 27 µM; IC (TGI) (NCIH460 cells): 54 µM; CC50 (NCIH460 cells): 80 µM; GI50 (MDAMB-231/U 251): 55 µM; IC (TGI) (MDAMB-231/U 251): 77 µM; CC50 (MDAMB-231/U 251): > 100 µM
6 | OC(COc1cccc2[nH]c3ccccc3c12)CN1CCc2sccc2C1 (stereo not drawn) [Example 4, 1-(9H-carbazol-4-yloxy)-3-(6,7-dihydrothieno[3,2-c]pyridin-5(4H)-yl)propan-2-ol] | – | GI50 (HCT116 cells): 32 µM; IC (TGI) (HCT116 cells): 57 µM; LC50 (concentration for 50% net cell kill relative to T0) (HCT116 cells): 82 µM; GI50 [1]: 28 µM; GI50 (NCIH460 cells): 18 µM; IC (TGI) (NCIH460 cells): 47 µM; CC50 (NCIH460 cells): 80 µM; GI50 (MDAMB-231/U 251): 34 µM; IC (TGI) (MDAMB-231/U 251): 59 µM; CC50 (MDAMB-231/U 251): 84 µM
7 | COc1cc(OC)c(CN2CCN(CC(O)COc3cccc4[nH]c5ccccc5c34)CC2)c(OC)c1 (stereo not drawn) [Example 34, 1-(9H-carbazol-4-yloxy)-3-[4-(2,4,6-trimethoxybenzyl)piperazin-1-yl]propan-2-ol] | 119 to 122 | –
8 | O=C(c1cc([N+](=O)[O-])[nH]n1)N1CCN(CC(O)COc2cccc3[nH]c4ccccc4c23)CC1 (stereo not drawn) [Example 36, 1-(9H-carbazol-4-yloxy)-3-[4-(5-nitro-1H-pyrazole-3-carbonyl)piperazin-1-yl]propan-2-ol] | 140 to 144 | –
9 | O=C(c1ccco1)N1CCN(CC(O)COc2cccc3[nH]c4ccccc4c23)CC1 (stereo not drawn) [Example 37, 1-(9H-carbazol-4-yloxy)-3-[4-(2-furoyl)piperazin-1-yl]propan-2-ol] | 85.1 to 89.1 | –
10 | O=C(/C=C/c1ccc2c(c1)OCO2)N1CCN(CC(O)COc2cccc3[nH]c4ccccc4c23)CC1 (stereo not drawn) [Example 45, 1-(9H-carbazol-4-yloxy)-3-{4-[(2E)-3-(1,3-benzodioxol-5-yl)acryloyl]piperazin-1-yl}propan-2-ol] | 90 to 93 | –
11 | O=C(Cc1c(F)c(F)c(F)c(F)c1F)N1CCC(NCC(O)COc2cccc3[nH]c4ccccc4c23)CC1 (stereo not drawn) [Example 69, 1-(9H-carbazol-4-yloxy)-3-{[1-(pentafluorophenyl)acetylpiperidin-4-yl]amino}propan-2-ol] | 80 to 83 | –
12 | COc1ccc(CC(=O)N2CCC(NCC(O)COc3cccc4[nH]c5ccccc5c34)CC2)cc1 (stereo not drawn) [Example 71, 1-(9H-carbazol-4-yloxy)-3-{[1-(4-methoxyphenylacetyl)piperidin-4-yl]amino}propan-2-ol] | 54 to 57 | –
13 | CC(=O)c1ccc(S(=O)(=O)N2CCN(CC(O)COc3cccc4[nH]c5ccccc5c34)CC2)cc1 (stereo not drawn) [Example 75, 3-[4-(4-Acetylphenylsulfonyl)piperazin-1-yl]-1-(9H-carbazol-4-yloxy)propan-2-ol] | 183 to 185 | –

More lines, main results first:

Row | melting point [°C] | SMILES | also measured
14 | 57 to 62 | OC(COc1cccc2[nH]c3ccccc3c12)CN1CCN(Cc2nccs2)CC1 (stereo not drawn) [Example 28, 1-(9H-carbazol-4-yloxy)-3-{4-[(thiazol-2-yl)methyl]piperazin-1-yl}propan-2-ol] | –
15 | 51 to 56 | OC(COc1cccc2[nH]c3ccccc3c12)CN1CCN(CC2CC2)CC1 (stereo not drawn) [Example 29, 1-(9H-carbazol-4-yloxy)-3-[4-(cyclopropylmethyl)piperazin-1-yl]propan-2-ol] | –
16 | 68 to 70 | OC(COc1cccc2[nH]c3ccccc3c12)CN1CCN(Cc2ccc(Br)cc2F)CC1 (stereo not drawn) [Example 32, 1-(9H-carbazol-4-yloxy)-3-[4-(4-bromo-2-fluorobenzyl)piperazin-1-yl]propan-2-ol] | –
17 | 69 to 71 | CSc1ccc(CN2CCN(CC(O)COc3cccc4[nH]c5ccccc5c34)CC2)cc1 (stereo not drawn) [Example 33, 1-(9H-carbazol-4-yloxy)-3-[4-(4-methylthiobenzyl)piperazin-1-yl]propan-2-ol] | –
18 | 215 to 218 | O=C(c1cc2ccccc2[nH]1)N1CCN(CC(O)COc2cccc3[nH]c4ccccc4c23)CC1 (stereo not drawn) [Example 38, 1-(9H-carbazol-4-yloxy)-3-[4-(1H-indole-2-carbonyl)piperazin-1-yl]propan-2-ol] | –
19 | 80 to 83 | O=C(c1cccs1)N1CCN(CC(O)COc2cccc3[nH]c4ccccc4c23)CC1 (stereo not drawn) [Example 39, 1-(9H-carbazol-4-yloxy)-3-[4-(thiophene-2-carbonyl)piperazin-1-yl]propan-2-ol] | –
20 | 101 to 104 | O=C(c1ccc(-c2ccc([N+](=O)[O-])cc2)o1)N1CCN(CC(O)COc2cccc3[nH]c4ccccc4c23)CC1 (stereo not drawn) [Example 40, 1-(9H-carbazol-4-yloxy)-3-{4-[5-(4-nitrophenyl)-2-furoyl]piperazin-1 yl}propan-2-ol] | –
21 | 98 to 101 | COc1ccc(C(=O)N2CCN(CC(O)COc3cccc4[nH]c5ccccc5c34)CC2)cc1OC (stereo not drawn) [Example 42, 1-(9H-carbazol-4-yloxy)-3-[4-(3,4-dimethoxybenzoyl)piperazin-1-yl]propan-2-ol] | –
22 | 89 to 92 | O=C(c1cnc2ccccc2n1)N1CCN(CC(O)COc2cccc3[nH]c4ccccc4c23)CC1 (stereo not drawn) [Example 46, 1-(9H-carbazol-4-yloxy)-3-[4-(quinoxaline-2-carbonyl)piperazin-1-yl]propan-2-ol] | –
23 | 92 to 95 | N#Cc1ccc(C(=O)N2CCN(CC(O)COc3cccc4[nH]c5ccccc5c34)CC2)cn1 (stereo not drawn) [Example 47, 1-(9H-carbazol-4-yloxy)-3-[4-(6-cyanonicotine-3-carbonyl)piperazin-1-yl]propan-2-ol] | –
24 | 70 to 73 | O=C(c1ccc2c(c1)OCO2)N1CCN(CC(O)COc2cccc3[nH]c4ccccc4c23)CC1 (stereo not drawn) [Example 50, 1-(9H-carbazol-4-yloxy)-3-[4-(1,3-benzodioxol-5-ylcarbonyl)piperazin-1-yl]propan-2-ol] | –
25 | 112 to 114 | O=C(CCc1cc2ccccc2[nH]1)N1CCN(CC(O)COc2cccc3[nH]c4ccccc4c23)CC1 (stereo not drawn) [Example 51] | –
26 | 93 to 96 | O=C(c1cc2ccccc2o1)N1CCN(CC(O)COc2cccc3[nH]c4ccccc4c23)CC1 (stereo not drawn) [Example 54, 3-[4-(1-Benzofuran-2-ylcarbonyl)piperazin-1-yl]-1-(9H-carbazol-4-yloxy)propan-2-ol] | –
27 | 78 to 80 | O=C(c1ccc(Br)s1)N1CCN(CC(O)COc2cccc3[nH]c4ccccc4c23)CC1 (stereo not drawn) [Example 56, 3-[4-(5-Bromothiophene-2-carbonyl)piperazin-1-yl]-1-(9H-carbazol-4-yloxy) propan-2-ol] | –
28 | 289 to 292 | COc1cccc2sc(NC(=O)CN3CCN(CC(O)COc4cccc5[nH]c6ccccc6c45)CC3)nc12 (stereo not drawn) [Example 61, 2-{4-[3-(9H-carbazol-4-yloxy)-2-hydroxypropyl]-piperazin-1-yl}-N-(4-methoxy-1,3-benzothiazol-2-yl)acetamide] | –
29 | 69 to 71 | O=C(CN1CCN(CC(O)COc2cccc3[nH]c4ccccc4c23)CC1)Nc1ccccc1 (stereo not drawn) [Example 62, 2-{4-[3-(9H-carbazol-4-yloxy)-2-hydroxypropyl]-piperazin-1-yl}-N-phenyl acetamide] | –
30 | 88 to 90 | O=C(c1ccc2c(c1)OCO2)N1CCC(NCC(O)COc2cccc3[nH]c4ccccc4c23)CC1 (stereo not drawn) [Example 68, 3-{[1-(1,3-Benzodioxol-5-ylcarbonyl)piperidin-4-yl]amino}-1-(9H-carbazol-4-yloxy)propan-2-ol] | –
